For 7 molecules, IC50 and ED50 results are on record in US5981576A, “(Methylsulfonyl)phenyl-2-(5H)-furanones as COX-2 inhibitors” (Merck Frosst Canada, Inc., priority 1998, dated 1999).

For experiment [1], the target named is T1, COX-1 (Homo sapiens, UniProt P23219). The experiment is described as follows: biochemical. The experiment is classed as biochemical. The conditions noted are these: Table III; U937. Here is the method: Compounds are tested as inhibitors of cyclooxygenase activity in whole cell cyclooxygenase assays. Both of these assays measure prostaglandin E2 synthesis in response to arachidonic acid, using a radioimmunoassay. Cells used for these assays are human osteosarcoma 143 cells (which specifically express COX-2) and human U-937 cells (which specifically express COX-1). In these assays, 100% activity is defined as the difference between prostaglandin E2 synthesis in the absence and presence of arachidonate.
U 937 cells are pelleted by centrifugation at 500×g for 5 min and washed once with phosphate-buffered saline and repelleted. Cells are resuspended in homogenization buffer consisting of 0.1 M Tris-HCl, pH 7.4, 10 mM EDTA, 2 μg/ml leupeptin, 2 μg/ml soybean trypsin inhibitor, 2 μg/ml aprotinin and 1 mM phenyl methyl sulfonyl fluoride. The cell suspension is sonicated 4 times for 10 sec and is centrifuged at 10,000×g for 10 min at 4° C. The supernatant is centrifuged at 100,000×g for 1 hr at 4 ° C. The 100,000×g microsomal pellet is resuspended in 0.1 M Tris-HCl, pH 7.4, 10 mM EDTA to approximately 7 mg protein/ml and stored at -80° C.
Microsomal preparations are thawed immediately prior to use, subjected to a brief sonication, and then diluted to a protein concentration of 125 μg/ml in 0.1 M Tris-HCl buffer, pH 7.4 containing 10 mM EDTA, 0.5 mM phenol, 1 mM reduced glutathione and 1 μM hematin. Assays are performed in duplicate in a final volume of 250 μl. Initially, 5 μd of DMSO vehicle or drug in DMSO are added to 20 μl of 0.1 M Tris-HCl buffer, pH 7.4 containing 10 mM EDTA in wells of a 96-deepwell polypropylene titre plate. 200 μl of the microsomal preparation are then added and pre-incubated for 15 min at room temperature before addition of 25 μl of […] in 0.1 M Tris-HCl and 10 mM EDTA, pH 7.4. […] Cyclooxygenase activity is defined as the difference between PGE2 levels in samples incubated in the presence of arachidonic acid and ethanol vehicle.

In experiment [2] the target is T1, COX-1. The experiment can be described thus: Human whole blood assay, COX-1 (clotting-induced TxB2 production). It counts as cell-based. To be noted: Table III, read-out: COX-1 (IC50) HWB. An excerpt:
(§1) As well, platelets in whole blood contain a large amount of the COX-1 enzyme. Immediately following blood clotting, platelets are activated through a thrombin-mediated mechanism. […] Therefore, the degree of selectivity by the test compound can be determined by measuring the levels of PGE2 after LPS induction (COX-2) and TxB2 following blood clotting (COX-1) in the same assay.
B. COX-1 (Clotting-induced TxB2 production)
Fresh blood is collected into vacutainers containing no anticoagulants. Aliquots of 500 μL are immediately transferred to siliconized microcentrifuge tubes preloaded with 2 μL of either DMSO or a test compound at final concentrations varying from 10 nM to 30 μM. The tubes are vortexed and incubated at 37° C. for 1 hour to allow blood to clot. At the end of incubation, serum is obtained by centrifugation (12,000×g for 5 min.). A 100 μL aliquot of serum is mixed with 400 μL of methanol for protein precipitation.

A further experiment concerns Rat Paw Edema. The experiment can be described thus: Rat paw edema assay (carrageenan). It counts as in vivo, Male Sprague-Dawley rats. The conditions noted are these: 3 h, Table IV, po. As for the experimental part: Male Sprague-Dawley rats (150-200 g) are fasted overnight and are given, po, either vehicle (1% methocel or 5% Tween 80) or a test compound. One hr later, a line is drawn using a permanent marker at the level above the ankle in one hind paw to define the area of the paw to be monitored. The paw volume (V0) is measured using a plethysmometer (Ugo-Basile, Italy) based on the principle of water displacement. […] The animals are sacrificed by CO2 asphyxiation and the absence or presence of stomach lesions scored. Data is compared with the vehicle-control values and percent inhibition calculated. All treatment groups are coded to eliminate observer bias.

Experiment [3] addresses T2, COX-2 (Homo sapiens, UniProt P35354).
T2 sequence (P35354 18-604): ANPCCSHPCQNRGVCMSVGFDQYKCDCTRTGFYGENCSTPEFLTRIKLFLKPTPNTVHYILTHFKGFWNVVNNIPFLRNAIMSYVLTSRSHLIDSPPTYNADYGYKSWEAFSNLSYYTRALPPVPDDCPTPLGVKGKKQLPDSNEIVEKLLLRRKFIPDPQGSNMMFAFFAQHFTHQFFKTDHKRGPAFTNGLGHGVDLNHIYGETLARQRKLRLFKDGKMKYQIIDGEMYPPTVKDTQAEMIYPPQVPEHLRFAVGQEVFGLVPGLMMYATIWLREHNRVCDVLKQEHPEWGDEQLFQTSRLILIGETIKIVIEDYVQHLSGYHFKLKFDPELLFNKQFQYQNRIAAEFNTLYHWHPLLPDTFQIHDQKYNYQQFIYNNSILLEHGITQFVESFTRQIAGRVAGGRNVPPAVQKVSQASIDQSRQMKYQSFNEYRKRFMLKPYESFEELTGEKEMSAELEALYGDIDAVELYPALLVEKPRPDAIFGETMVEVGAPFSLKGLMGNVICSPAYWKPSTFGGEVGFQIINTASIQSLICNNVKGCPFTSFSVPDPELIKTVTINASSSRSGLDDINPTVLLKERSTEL
The experiment can be described thus: biochemical. To be noted: Table IV; purified human COX-2; read-out: COX-2 (IC50, μM) TMPD. Here is the method:
Assay of the activity of purified human COX-2
The assay mixture (180 μL) contains 100 mM sodium phosphate, pH 6.5, 2 mM genapol X-100, 1 μM hematin, 1 mg/ml gelatin, 80-100 units of purified enzyme (One unit of enzyme is defined as the amount of enzyme required to produce an O.D. change of 0.001/min at 610 nm) and 4 μL of the test compound in DMSO. The mixture is pre-incubated at room temperature (22° C.) for 15 minutes prior to initiation of the enzymatic reaction by the addition of 20 μL of a sonicated solution of 1 mM arachidonic acid (AA) and 1 mM TMPD in assay buffer (without enzyme or hematin). The enzymatic activity is measured by estimation of the initial velocity of TMPD oxidation over the first 36 sec of the reaction. […] IC50 values are derived from 4-parameter least squares non-linear regression analysis of the log-dose vs % inhibition plot.

In experiment [4] the target is T2, COX-2. The experiment can be described thus: cell-based. To be noted: Table IV; CHO[hCOX-2] cells, 10 μM AA. As for the experimental part: Chinese hamster ovary (CHO) cell lines which have been stably transfected with an eukaryotic expression vector pCDNAIII containing either the human COX-1 or COX-2 cDNA's are used for the assay. These cell lines are referred to as CHO [hCOX-1] and CHO [hCOX-2], respectively. […] Cells (0.3×10^6 cells in 200 μl) are preincubated with 3 μl of the test drug or DMSO vehicle for 15 min at 37° C. […] Cells are then challenged in the presence or absence of drug with the AA/HBSS solution to yield a final concentration of 0.5 μM AA in the CHO[hCOX-1] assay and a final concentration of 10 μM AA in the CHO[hCOX-2] assay. […] The samples are centrifuged at 300×g at 4° C. for 10 min, and an aliquot of the clarified supernatant is appropriately diluted for the determination of PGE2 levels using an enzyme-linked immunoassay for PGE2 (Correlate PGE2 enzyme immunoassay kit, Assay Designs, Inc.). Cyclooxygenase activity in the absence of test compounds is determined as the difference in PGE2 levels of cells challenged with arachidonic acid versus the PGE2 levels in cells mock-challenged with ethanol vehicle. Inhibition of PGE2 synthesis by test compounds is calculated as a percentage of the activity in the presence of drug versus the activity in the positive control samples.

For experiment [5], the target named is T2, COX-2. The experiment is described as follows: cell-based. To be noted: Table IV; human whole blood, LPS-induced PGE2; read-out: COX-2 (IC50, μM) HWB.
Text: as §1
A. COX-2 (LPS-induced PGF, production)
Fresh blood is collected in heparinized tubes by venipuncture from both male and female volunteers. The subjects have no apparent inflammatory conditions and have not taken any NSAIDs for at least 7 days prior to blood collection. Plasma is immediately obtained from a 2 mL blood aliquot to use as blank (basal levels of PGE2).

T1 sequence (P23219 24-599): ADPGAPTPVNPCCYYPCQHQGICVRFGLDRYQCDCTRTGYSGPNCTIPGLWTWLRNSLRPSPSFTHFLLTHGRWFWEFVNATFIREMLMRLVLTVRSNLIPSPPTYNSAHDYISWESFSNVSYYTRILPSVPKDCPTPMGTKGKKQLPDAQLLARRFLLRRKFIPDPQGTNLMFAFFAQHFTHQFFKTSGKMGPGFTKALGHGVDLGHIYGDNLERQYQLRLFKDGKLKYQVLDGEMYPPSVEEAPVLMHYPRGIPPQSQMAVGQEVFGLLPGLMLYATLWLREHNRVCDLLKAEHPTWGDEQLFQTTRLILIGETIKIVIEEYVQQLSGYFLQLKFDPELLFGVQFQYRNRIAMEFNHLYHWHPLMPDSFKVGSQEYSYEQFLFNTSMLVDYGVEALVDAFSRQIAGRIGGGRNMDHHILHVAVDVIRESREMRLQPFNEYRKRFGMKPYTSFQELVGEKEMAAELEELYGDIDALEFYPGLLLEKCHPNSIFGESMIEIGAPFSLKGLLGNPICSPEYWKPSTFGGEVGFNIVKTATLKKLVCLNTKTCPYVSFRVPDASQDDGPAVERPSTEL

For `CC1(C)OC(=O)C(OC2CCCCC2)=C1c1ccc(S(C)(=O)=O)cc1` [Example 14, 3-Cyclohexyloxy-5,5-dimethyl-4-(4-(methylsulfonyl)phenyl)-5H-furan-2-one], the IC50 is > 10 µM against COX-1 [1] and 58.3 µM at COX-1 [2].

Regarding `CC1(C)OC(=O)C(Oc2ccc(F)c(F)c2)=C1c1ccc(S(C)(=O)=O)cc1` [Example 1, 3-(3,4-Difluorophenoxy)-5,5-dimethyl-4-(4-(methylsulfonyl)phenyl)-5H-furan-2-one], the IC50 at COX-1 [1] amounted to 0.99 µM; on COX-1 [2] it was 9.2 µM.

On to `COC1(C)OC(=O)C(Oc2ccc(F)c(F)c2)=C1c1ccc(S(C)(=O)=O)cc1` (centres unmarked) [Example 24c, 3-(3,4-Difluorophenoxy)-5-methoxy-5-methyl-4-(4-(methylsulfonyl)phenyl)-5H-furan-2-one], for which the IC50 against COX-1 [1] is > 3 µM; at COX-1 [2] it was 25.3 µM.

For `CC1(C)OC(=O)C(Oc2cc(F)cc(F)c2)=C1c1ccc(S(C)(=O)=O)cc1` [Example 3, 3-(3,5-Difluorophenoxy)-5,5-dimethyl-4-(4-(methylsulfonyl)phenyl)-5H-furan-2-one], on COX-1 [2], the IC50 was determined as 6.1 µM.

Regarding `C[C@]1(CC(F)(F)F)OC(=O)C(Oc2ccc(F)cc2)=C1c1ccc(S(C)(=O)=O)cc1` [Example 166, (5R)-3-(4-fluorophenoxy)-5-methyl-4-(4-methylsulfonyl)phenyl-5-(2,2,2-trifluoroethyl)-5H-furan-2-one], it took a dose of 4.9 mg/kg to reach the 50% effect level in the experiment on Rat Paw Edema (ED50).

On to `CC[C@@]1(C)OC(=O)C(Oc2ccc(F)cn2)=C1c1ccc(S(C)(=O)=O)cc1` [Example 162, (5R)-3-(5-Fluoro-2-pyridyloxy)-5-ethyl-5-methyl-4-(4-methylsulfonyl)-phenyl-5H-furan-2-one], for which the half-inhibitory concentration (IC50) stood at 8 µM at COX-2 [3], 0.06 µM against COX-2 [4] and 0.62 µM at COX-2 [5].

Take `CC1(C)OC(=O)C(Oc2cncc(Cl)c2)=C1c1ccc(S(C)(=O)=O)cc1` [Example 49, 3-(3-Chloro-5-pyridiloxy)-5,5-dimethyl-4-(4-(methylsulfonyl)phenyl)-5H-furan-2-one]: the half-maximal inhibitory concentration (IC50) at COX-2 [3] is 7.8 µM; on COX-2 [4] it was 0.2 µM; at COX-2 [5], 0.61 µM.

What is called IC50 is the concentration that gives 50% inhibition. Usually ED50 stands for the dose at which the effect has come halfway, by size or by number of responders. A high value points to a need for a large dose.
